Assay results as given in patent US10478437B2, “Combination therapy to enhance the anticancer efficacy of platinum drugs” (University of Pittsburgh-of the Commonwealth System of …, priority 2014, dated 2019).
Entries after “also recorded” stand apart in the source; their conditions may differ.

Key:
Type in all cases: cell-based, human
[1] = system: cisplatin-resistant ovarian cancer cell line A2780cis; assay: Caspase-3/7 activity assay (apoptotic cell death), compound alone or with cisplatin; conditions: for activation of Caspase-3/7 in combination with cisplatin compared to mdivi-1: FIG. 7A and Table 6; for activation of Caspase-3/7 in combination with cisplatin compared to mdivi-1 / activity in the screen (Caspase-3/7 activity and microscopic examination), active / inactive / Caspase-3/7 activity upon combination with cisplatin compared to cisplatin alone or compound alone: in words; for caspase-3/7 activity (Lum), compound with cisplatin: compound 20 μM with 20 μM cisplatin; for caspase-3/7 activity (Lum), compound with cisplatin / caspase-3/7 activity (Lum), compound alone / caspase-3/7 activity (Lum) with compound and cisplatin (20 μM) / caspase-3/7 activity (Lum) with compound alone: 20 h; for caspase-3/7 activity (Lum) with compound and cisplatin (20 μM) / caspase-3/7 activity (Lum) with compound alone: Table 6; for caspase-3/7 activity (Lum) with compound alone: untreated cells 9 ± 1; for activity in the screen (Caspase-3/7 activity and microscopic examination), active / inactive: alone or in the presence of cisplatin
Protocol: Cell proliferation was determined using a CyQUANT Direct Cell Proliferation Assay kit (Invitrogen), the activity of caspase-3/7 was measured using a Caspase-Glo 3/7 Assay Systems (Promega, Madison, Wis.), and the MTS calorimetric survival assay was performed using the CellTiter 96 AQueous One Solution Cell Proliferation Assay kit (Promega, Madison, Wis.), according to the manufacturer's instructions. The survival fractions were calculated after setting untreated control cells at 100%. The data were plotted and curve fitted using GraphPad Prism software. To quantify the number of cells with active caspase-3, cells were fixed with 4% paraformaldehyde (Electron microscopy sciences, Hatfield, Pa.), stained with Alexa Fluor-488 conjugated antibody against cleaved caspase-3 (Asp175) (Cell Signaling Technology, Danvers, Mass.) followed by flow cytometry. An FITC Annexin V Apoptosis Detection Kit (BD PharMingen, San Diego, Calif.) was used to quantify apoptotic cells, according to the manufacturer's instructions.
A Caspase-3/7 assay was performed to evaluate the activity of the 36 compounds of FIG. 1 in vitro in the cisplatin-resistant ovarian cancer cell line, A2780cis, alone or in the presence of cisplatin. A microscopic examination of apoptotic morphologic changes was also carried out right before the measurement of Caspase-3/7 activity, in order to confirm that the data on the activation of the Caspase-3/7 following treatment is consistent with morphological change and reflects cell death.

[2] = system: cisplatin-resistant ovarian cancer cell line A2780cis; assay: CellTiter-Blue cell viability assay, compound alone or with cisplatin or carboplatin, 24 h; conditions: for cell viability after combination with carboplatin compared to carboplatin alone / viability at 10 µM / viability at 20 µM / viability at 50 µM / Survival (%) of cells with compound and carboplatin (200 μM) / survival (%) of cells with compound and cisplatin (20 μM): 24 h; for cell viability after combination with carboplatin compared to carboplatin alone: FIG. 6; for viability at 10 µM / viability at 20 µM / viability at 50 µM: Homo sapiens, A2780cis, untreated cells = 100%, read-out: survival (%) of cells with compound alone; for viability at 10 µM: compound 10 μM; for viability at 20 µM: compound 20 μM; for viability at 50 µM: compound 50 μM
Protocol: Data were expressed as mean±standard deviation. A Student's t test was used for the comparisons between the treatment with the combination of analogs with cisplatin and with analogs alone. P<0.05 was considered statistically significant. Combination index was calculated using CompuSyn software. A value of 0.3-0.7 for the combination index indicates synergism, 0.1-0.3 indicates strong synergism, and <0.1 indicates very strong synergism (Chou, 2006).
To further validate the activity of the identified 11 active compounds (see FIG. 3), a CellTiter-Blue cell viability assay was performed with increasing concentrations (10 μM, 20 μM and 50 μM) of the disclosed compounds (see FIG. 4 and Table 5). Cisplatin resistant ovarian cancer cells (A2780cis) were treated with a disclosed compound alone, cisplatin alone or a combination of a compound with cisplatin for 24 h to determine the effects of the compounds on cell viability.
Analysis of the effect of the disclosed compounds with another platinum-containing compound, carboplatin, was performed. A2780cis cells were treated with carboplatin alone or with the combination of carboplatin and the disclosed compounds at indicated concentrations for 24 h followed by the analysis of cell viability.

A2780cis cells = assay: Western blot of caspase/PARP cleavage, Noxa induction, RPA32 and H2AX phosphorylation; conditions: compound 20 μM + cisplatin 20 μM, 20 h, FIG. 7B; in words
Protocol: Whole cell lysate was prepared by lysing cells in cell lysis buffer (Cell signaling technology) containing complete protease inhibitor (Roche). Cell lysates were then cleared at 15,000 rpm for 15 min at 4° C. The protein content was quantified using a Bio-Rad Protein Assay kit (Bio-Rad Laboratories, Hercules, Calif.). The equal amount of protein was separated on Tris-glycine gels (Invitrogen). The separated proteins were blotted onto a polyvinylidene difluoride membrane and blocked overnight at 4° C. in phosphate-buffered saline containing 0.1% Tween 20 and 10% nonfat dry milk (blocking buffer). Membranes were incubated with primary antibodies in blocking buffer overnight at 4° C. Primary antibodies used were: β-actin from Sigma; Bax, Bak, Caspase-9 and cleaved Caspase-3 from Cell Signaling Technology; phospho-Histone H2AX (Ser 139) and Noxa from Millipore. Membranes were then washed and incubated in peroxidase conjugated anti-rabbit IgG (Sigma) or anti-mouse IgG (Sigma) secondary antibody for 1 h at room temperature. Membranes were developed using SuperSignal West Femto Maximum Sensitivity Substrate (Thermo Fisher Scientific).
A2780cis cells were treated with cisplatin alone, compounds alone or in combination with cisplatin at indicated concentrations for 20 h to analyze apoptotic cell death in response to treatment. […] Expression and cleavage of several major caspases (Caspase-8, Caspase-9 and Caspase-3), as well as poly(ADP-ribose) polymerase (PARP) and NOXA. A2780cis cells were treated with cisplatin (20 μM) alone, compounds (20 μM) alone or in combination with cisplatin for 20 h.
To determine the effects of the compounds on DNA damage and mitochondrial dysfunction, A2780cis cells were treated with cisplatin (20 μM) alone or the combination of cisplatin with 20 μM of compound 1-6. Replication protein A (RPA) is a single strand-specific DNA-binding protein, consisting of three subunits, RPA70, RPA32, and RPA14. RPA32 is phosphorylated in response to DNA replication stress. Western blot analysis was performed to evaluate the phosphorylation of RPA32 and histone H2AX, the induction of Noxa expression and cleavage of caspase-3. […] A2780cis cells were treated with cisplatin (50 μM) alone, 1-6 (50 μM) alone or the combination of cisplatin and compound 1-6 for 4 h. The oxygen consumption rate (OCR) was measured by a Seahorse extracellular flux analyzer.

[3] = Table 1, compound 20 μM, mean ± S.D. of triplicates
[4] = compound 5 μM + cisplatin 20 μM
[5] = compound 10 μM + cisplatin 20 μM
[6] = compound 20 μM + cisplatin 20 μM
[7] = compound 10 μM + carboplatin 200 μM
[8] = compound 20 μM + carboplatin 200 μM
[9] = compound 50 μM + carboplatin 200 μM
[10] = compound 50 μM + cisplatin 20 μM

Row | Structure (SMILES) | activation of Caspase-3/7 in combination with cisplatin compared to mdivi-1 [1] | caspase-3/7 activity (Lum), compound with cisplatin ([1]; Table 1) | caspase-3/7 activity (Lum), compound alone [1, 3] | caspase-3/7 activity (Lum), compound alone ([1]; Table 2, compound 20 μM) | caspase-3/7 activity (Lum) with compound and cisplatin (20 μM) [1, 4] | caspase-3/7 activity (Lum) with compound alone ([1]; compound 5 μM) | caspase-3/7 activity (Lum) with compound and cisplatin (20 μM) [1, 5] | caspase-3/7 activity (Lum) with compound alone ([1]; compound 10 μM) | caspase-3/7 activity (Lum) with compound and cisplatin (20 μM) [1, 6] | caspase-3/7 activity (Lum) with compound alone ([1]; compound 20 μM) | activity in the screen (Caspase-3/7 activity and microscopic examination), active / inactive [1] | Caspase-3/7 activity upon combination with cisplatin compared to cisplatin alone or compound alone [1] | cell viability after combination with carboplatin compared to carboplatin alone ([2]; in words) | viability at 10 µM [2] | viability at 20 µM [2] | viability at 50 µM [2] | Survival (%) of cells with compound and carboplatin (200 μM) [2, 7] | survival (%) of cells with compound and cisplatin (20 μM) [2, 5] | Survival (%) of cells with compound and carboplatin (200 μM) [2, 8] | survival (%) of cells with compound and cisplatin (20 μM) [2, 6] | other results
1 | Cc1ccc(-n2c(=S)[nH]c3ccccc3c2=O)cc1F [Compound 1-17] | more effective; also recorded: more potent than mdivi-1 | 123 ± 5 Lum | 10 ± 2 Lum | 10 ± 2 Lum | 34 ± 3 Lum | 15 ± 8 Lum | 76 ± 7 Lum | 10 ± 1 Lum | 101 ± 6 Lum | 10 ± 1 Lum | active | increase in Caspase-3/7 activity | cell viability was reduced | 101 ± 2.9% | 101 ± 2.1% | 101 ± 1.4% | 90.7 ± 0.9% | 63.0 ± 1.1% | 79.3 ± 3.9% | 39.6 ± 3.0% | Survival (%) of cells with compound and carboplatin (200 μM) [2, 9]: 69.7 ± 4.1%; survival (%) of cells with compound and cisplatin (20 μM) [2, 10]: 26.7 ± 1.4%; cleavage of caspases and PARP, induction of Noxa in combination with cisplatin (A2780cis cells): cleavage of Caspase-8, 9, 3, PARP and the induction of Noxa
2 | CCc1ccccc1-n1c(=S)[nH]c2ccccc2c1=O [Compound 1-19] | more effective; also recorded: more potent than mdivi-1 | 136 ± 12 Lum | 12 ± 1 Lum | 12 ± 1 Lum | 36 ± 3 Lum | 9 ± 2 Lum | 114 ± 5 Lum | 8 ± 1 Lum | 96 ± 11 Lum | 9 ± 1 Lum | active | increase in Caspase-3/7 activity | cell viability was reduced | 103 ± 1.2% | 99.6 ± 3% | 98.5 ± 1.7% | 103.5 ± 1.6% | 47.9 ± 4.8% | 70.0 ± 2.9% | 25.3 ± 1.0% | Survival (%) of cells with compound and carboplatin (200 μM) [2, 9]: 31.6 ± 4.2%; survival (%) of cells with compound and cisplatin (20 μM) [2, 10]: 4.9 ± 1.4%; cleavage of caspases and PARP, induction of Noxa in combination with cisplatin (A2780cis cells): cleavage of Caspase-8, 9, 3, PARP and the induction of Noxa
3 | CCCn1c(=S)[nH]c2cc(OC)c(OC)cc2c1=O [Compound 1-8] | more effective; also recorded: more potent than mdivi-1 | 121 ± 4 Lum | 14 ± 2 Lum | 14 ± 2 Lum | 38 ± 4 Lum | 10 ± 1 Lum | 72 ± 1 Lum | 10 ± 1 Lum | 93 ± 4 Lum | 11 ± 1 Lum | active | increase in Caspase-3/7 activity | cell viability was reduced | 99.6 ± 2.9% | 96.3 ± 3.2% | 88.4 ± 2.1% | 89.5 + 2.1% | 53.4 ± 1.5% | 65.8 ± 3.5% | 25.9 ± 2.3% | potency at enhancing the cytotoxicity of cisplatin compared to mdivi-1 ([2]; compound 10 μM with cisplatin, FIG. 4, in words): more potent than mdivi-1; Survival (%) of cells with compound and carboplatin (200 μM) [2, 9]: 42.5 ± 2.3%; survival (%) of cells with compound and cisplatin (20 μM) [2, 10]: 17.9 ± 1.3%; cleavage of caspases and PARP, induction of Noxa in combination with cisplatin (A2780cis cells): cleavage of Caspase-8, 9, 3, PARP and the induction of Noxa
